Values belong to the substance of their own block, whether it stands above or below them.
Assays:
[1] = test system: tyrosine residues in the cytoplasmic domain of NGFR; assay: Tyrosine phosphorylation of ectodomain/NGFR chimeras expressed in COS1 cells (homophilic complex formation); type: cell-based; details: FIG. 9
Description: Cell lysate samples were subjected to separation on SDS-PAGE, followed by a transfer of the proteins in the gel to nitrocellulose membranes (Hybond-ECL, Amersham Pharmacia Biotech, Inc.). After blocking with a solution of 10% skim milk dissolved in TBS (20 mM Tris-HCl buffer, pH 7.5 containing 150 mM NaCl), the membrane was exposed to a monoclonal anti-FLAG M2 antibody (3 μg/ml) for detecting FLAG-tagged MT1-MMP and its mutants. In order to visualize the immunoreactive bands, the membrane was further exposed to an alkaline phosphatase-conjugated goat anti-mouse IgG antibody. For the purpose of detecting a phosphotyrosine residue in chimera proteins, a monoclonal anti-phosphotyrosine antibody, PY20 (1 μg/ml) was used.
By utilizing the above principle, a chimeric protein is first constructed consisting of the ectodomain of MT1-MMP and the transmembrane (TM) and cytoplasmic (CP) domains of NGFR (FIG. 8) in order to test for direct complex formation. When the ectodomain of this chimeric protein forms a homophilic complex in a similar manner, tyrosine residues in the cytoplasmic domain will be phosphorylated.
A FLAG-tagged MT1-MMP (MT1-F) expression construct as used herein was as described in Itoh, Y. et al., J. Biol. Chem. 274: 34260-34266, 1999. In addition, MT1-F was used as a template to generate cDNAs for MT1Cat-F (Δ Ile^318-Gly^535) and MT1PEX-F (ΔTyr^112-Pro^312) by the PCR extension method of Ho et al. (Ho, S. N. et al., Gene, 77: 51-59, 1989). The cDNA was subcloned into pSG5 (Stratagene, CA, USA). Chimera mutants of the ectodomain of MT1-F, MT1Cat-F, MT1PEX-F or MT4PEX-F, with the transmembrane (TM)/cytoplasmic (CP) domain of NGFR were also generated by the PCR method in a similar manner, and subcloned into pSG5. The MT1-MMP-derived sequence corresponded to Met^1 through Asp^515 of MT1-MMP, while the NGFR-derived sequence corresponded to Glu^384 through Gly^790 of NGFR (GenBank™ accession number M23102). The other chimera mutants were also composed from these corresponding sequences. All the PCR-generated fragments were confirmed by DNA sequencing.
Expression vectors for the protein were transfected into COS1 cells, using FuGENE6™ (Roche Molecular Biochemicals) according to the manufacturer's instructions. COS1 cells were seeded in 6-well plates at 1.5×10^5/well at 16 hrs before the transfection was performed. The COS1 cells were maintained in a HAM F-12 medium or DMEM containing 10% fetal bovine serum in a humidified incubator at 37° C. At 48 hrs after the transfection, the cells were collected for use in the experiments.
To monitor the dimer formation of the enzyme in the cells, another approach to detect the molecular interactions was executed. […]

MT1-MMP [2] = assay: In situ gelatin degrading assay (DQ gelatin or Alexa488-conjugated gelatin); type: cell-based, human; details: DQ gelatin; CHO-K1 (FIG. 13) or COS1 cells (FIG. 22)
Description: Two different in situ gelatin degrading assays were performed. One used DQ™ gelatin (Molecular Probes, Inc., OR, USA). DQ gelatin is a fluorescence-quenched gelatin substrate, and will fluoresce upon proteolytic cleavage. Glass cover slips were coated with 5% DQ™ gelatin in a 10 mg/ml unlabeled gelatin solution, and dried. Transfected cells were cultured on the cover slip in a humidified chamber for 16 hrs. The cells were then fixed with 3% para-formaldehyde and the degraded areas were visualized as those showing fluorescence.
The other assay used Alexa488-conjugated gelatin made with an Alexa488-labeling kit (Molecular Probes). The bottom surfaces of 4-well chamber slides (Nunc) were coated with Alexa488-conjugated gelatin according to the method of Yana, I. and Weiss, S. J., Mol. Biol. Cell, 11, 2387-2401, 2000. Transfected COS1 cells were cultured in the chamber slides for 16 hrs in a humidified culture incubator. The cells were then fixed with 3% para-formaldehyde in PBS, and the degraded area was analyzed under a fluorescence microscope. The degraded area was visualized as a dark, non-fluorescent area. Fluorescence images were analyzed using confocal microscopy (BioRad).
(§1) Next, to determine if MT1PEX-F affects the catalytic activity of MT1-MMP on the cell surface or not, tests for gelatin degrading activity and binding capacity to TIMP-2 were conducted using cells transfected in the same incubator. As shown in FIGS. 12 through 14, CHO-K1 cells were transfected with an expression vector for MT1-F, MT1-F/MT1PEX-F or MT1Cat-F, or a vector alone (Mock). The cells were then treated with trypsin, and separately seeded to: DQ™ gelatin-coated cover slips for testing the proteolytic activity (FIG. 13); and 24-well plates for TIMP-2 binding assay (FIG. 12) and for the activation of proMMP-2 (FIG. 14). Transfected cells on the DQ™ gelatin-coated cover slip as shown in FIG. 13 were incubated in a medium at 37° C. for 18 hrs, and the generated fluorescence was analyzed using confocal microscopy. Transfected cells on the 24-well plate as shown in FIG. 12 were incubated with 25 nM ^125I-labeled TIMP-2 in the presence or absence of BB-94 (50 μM) at 0° C. for 1 hr. MT1-MMP specific binding was calculated by subtracting the datum obtained in the presence of BB-94 (50 μM) from each datum derived from the corresponding experiments. Identically transfected cells on the 24-well plate as shown in FIG. 14 were subjected to the reaction with purified proMMP-2 in a serum-free medium at 37° C. for 18 hrs. The cells and culture supernatants were respectively subjected to Western blotting analysis using a monoclonal anti-FLAG M2 antibody, and gelatin zymography analysis. […] DQ™ gelatin is a fluorescence-quenched gelatin, which fluoresces upon proteolytic cleavage. […]

MT1-MMP [3] = assay: Activation of proMMP-2 by MT1-MMP on the cell surface of transfected cells (gelatin zymography); type: cell-based, human; details: transfected COS1 cells, exogenous purified proMMP-2 (FIGS. 2, 20)
Description: Gelatin zymography was conducted using an SDS-polyacrylamide gel (PAGE) containing gelatin (0.8 mg/ml) (Itoh, Y. et al., J. Biol. Chem., 273: 24360-24367, 1998). The samples were mixed with a SDS-PAGE loading buffer without a reducing agent and subjected to electrophoretic analysis at room temperature. Enzyme activity was visualized as a negative staining area with Coomassie Brilliant Blue R-250.
The expression construct for FLAG epitope ([…]-tagged MT1-MMP (MT1-F) described in Itoh, Y. et al., J. Biol. Chem., 274: 34260-34266, 1999 was used as a template to generate cDNA for MT1Cat-F (A Ile^318-Gly^535) by the PCR extension method of Ho et al., (Ho, S. N. et al., Gene, 77: 51-59, 1989). The cDNA was subcloned into pSG5 (Stratagene, CA, USA). The PCR-generated fragments were confirmed by DNA sequencing. COS1 cells were transfected with the expression vector for MT1-MMP mutant; MT1-F or MT1Cat-F, or a vector alone (Mock). Expression vectors for each protein were transfected using FuGENE6™ (Roche Molecular Biochemicals) according to the manufacturer's instructions. COS1 cells were seeded in 6-well plates at 1.5×10^5/well at 16 hrs before the transfection was performed. The COS1 cells were maintained in a HAM F-12 medium or DMEM containing 10% fetal bovine serum in a humidified incubator at 37° C. At 48 hrs after the transfection, the cells were collected for use in the experiments. The cells were incubated in the presence of purified proMMP-2 in a serum-free medium (0.25 μg/ml) at 37° C. for 18 hrs. Cell lysates were tested for the expression of the mutants, while culture supernatants were tested for the activation of proMMP-2.
To investigate roles of dimer formation upon the activation of proMMP-2, MT1-F was introduced into COS1 cells together with MT1PEX-F. The co-introduced cells were reacted with exogenously added proMMP-2. Thus, COS1 cells were co-transfected with the MT1-F and MT1PEX-F at indicated DNA amount ratios. Next, purified proMMP-2 (0.25 μg/ml) in a serum-free medium was reacted with the resulting cells at 37° C. for 18 hrs. MMP-2 in the culture supernatant was analyzed by gelatin zymography, and the cell lysates were subjected to Western blotting analysis using a monoclonal anti-FLAG M2 antibody.
as §1, with “experiments.” for “experiments. Identically transfected cells on the 24-well plate as shown in FIG. 14 were subjected to the reaction with purified proMMP-2 in a serum-free medium at 37° C. for 18 hrs. The cells and culture supernatants were respectively subjected to Western blotting analysis using a monoclonal anti-FLAG M2 antibody, and gelatin zymography analysis.”

proMMP-2 = target: T1, proMMP-2 (Homo sapiens, UniProt P08253); assay: ProMMP-2 binding assay on transfected COS1 cells; type: cell-based; details: COS1 cells expressing the mutant (FIG. 21)
T1 construct: made in house; host or cells: HighFive insect cells infected with recombinant baculovirus; purified from culture supernatant
T1 sequence (P08253 30-660 limits assumed): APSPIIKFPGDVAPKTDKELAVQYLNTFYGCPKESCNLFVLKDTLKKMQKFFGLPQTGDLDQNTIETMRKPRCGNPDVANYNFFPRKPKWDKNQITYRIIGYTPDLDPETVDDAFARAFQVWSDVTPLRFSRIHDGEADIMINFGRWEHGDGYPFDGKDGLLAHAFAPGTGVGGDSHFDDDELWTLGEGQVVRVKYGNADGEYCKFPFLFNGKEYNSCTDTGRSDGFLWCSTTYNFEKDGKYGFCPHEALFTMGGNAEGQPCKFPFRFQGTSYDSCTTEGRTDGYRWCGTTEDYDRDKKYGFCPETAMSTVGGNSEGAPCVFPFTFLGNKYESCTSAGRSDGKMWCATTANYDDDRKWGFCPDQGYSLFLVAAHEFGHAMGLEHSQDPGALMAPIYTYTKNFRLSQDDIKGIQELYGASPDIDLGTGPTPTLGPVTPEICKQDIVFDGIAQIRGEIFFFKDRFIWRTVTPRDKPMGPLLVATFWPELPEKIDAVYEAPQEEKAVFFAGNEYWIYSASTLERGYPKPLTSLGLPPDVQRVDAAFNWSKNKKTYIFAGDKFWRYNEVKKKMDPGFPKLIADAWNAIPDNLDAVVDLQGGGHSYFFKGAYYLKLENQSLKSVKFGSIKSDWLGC
Description: Transfected COS1 cells were cultured in a 24-well plate (0.2×10^4/well). Forty-eight hours after transfection, the cells were washed three times with serum-free DMEM, and incubated with purified proMMP-2 (2 μg/ml) in the serum-free DMEM at 25° C. for 1 hr. The cells were then washed three times with serum-free DMEM containing 5% dimethyl sulfoxide (DMSO) to remove free proMMP-2, and lysed in 50 μl of a non-reducing SDS-loading buffer. MMP-2 bound to the cells was analyzed by gelatin zymography.

Substance: MT1-F/NGFR: Chimera of the ectodomain of MT1-F with the transmembrane/cytoplasmic domain of NGFR
- tyrosine phosphorylation of the chimera (Anti-PY) [1]: phosphorylated

- ternary complex formation with TIMP-2/proMMP-2 on the cell surface (proMMP-2): can form a ternary complex
Substance: MT1-MT4PEX: MT1-MMP in which Cys319 to Cys508 is replaced with Cys336 to Cys527 of mouse MT4-MMP
- gelatin degrading (proteolytic) activity of cells expressing the mutant (MT1-MMP [2]): showed proteolytic activity
- activation of proMMP-2 by cells expressing the mutant (MT1-MMP [3]): did not activate proMMP-2

Substance: MT1Cat-F/NGFR: Chimera of the ectodomain of MT1Cat-F with the transmembrane/cytoplasmic domain of NGFR
- tyrosine phosphorylation of the chimera (Anti-PY) [1]: extremely low

Substance: MT1PEX-F/NGFR: Chimera of the ectodomain of MT1PEX-F with the transmembrane/cytoplasmic domain of NGFR
- tyrosine phosphorylation of the chimera (Anti-PY) [1]: strongly phosphorylated

Substance: MT4PEX-F/NGFR: Chimera of the ectodomain of MT4PEX-F with the transmembrane/cytoplasmic domain of NGFR
- tyrosine phosphorylation of the chimera (Anti-PY) [1]: extremely low
